Test results from patent US20260151398A1, “COMPOUNDS FOR REDUCING CHOLESTEROL AND TREATING LIVER AND KIDNEY DISEASE” (McMaster University, priority 2021, published 2026).
“Also recorded” adds a separate entry of the source.

Key:
[1] = tested on: C57BL/6J mice; assay: Mouse studies: circulating PCSK9, triglycerides, ApoB and hepatic markers; type: in vivo
Description: Liver tissues were fixed in formaldehyde and subsequently embedded in paraffin for sectioning. […] Slides were then exposed to biotin-conjugated secondary antibodies for 45 minutes and then streptavidin peroxidase for 10 minutes. Staining was visualized using the Nova Red HRP Substrate (Vector Laboratories).
Mouse PCSK9 was measured using the Quantikinine® ELISA kit (#MCP900, R&D Systems) and human PCSK9 using the PCSK9 Quantikinine® ELISA kit (#DCP900, R&D Systems). Serum ApoB levels were also quantified using ELISAs (#DAPB00, R&D Systems). Serum samples were diluted as per manufacturer's instructions.
(§1) All animal studies were carried out in 8 h-fasted male wild-type, Pcsk9^−/− or Ampkβ1^−/− mice on the C57BL/6J background. CF (25-100 mg/kg-8 h) and CDN (50 mg/kg) treatments were administered via intraperitoneal injection unless specified otherwise. Primary mouse hepatocytes were isolated using a two-step process with EGTA ([…] in HEPES buffer, Sigma Aldrich) and collagenase (0.05% in HEPES buffer, Sigma Aldrich) in 12-week-old male mice on the C57BL/6J background. Cells were then washed, centrifuged, and plated following isolation in cell strainers. Hepatosure® 100-donor pooled primary human hepatocytes were purchased from Xenotech. Primary hepatocytes were regularly grown in William's E medium (Gibco, Thermo Fisher Scientific) containing 10% fetal bovine serum, 100 IU/ml penicillin, and 100 µg/ml streptomycin.
Next, the effect of CF on PCSK9 expression/secretion and ER stress marker expression was assessed in mice. […] Immunohistochemical staining intensities were quantified using ImageJ Software (FIG. 9 E).

[2] = tested on: PCSK9; assay: PCSK9 secretion from cultured and primary hepatocytes (ELISA of medium); type: cell-based, human, mouse; conditions: for PCSK9 secretion with Ca2+-modulating agents: ELISA of medium
Description: (§2) HuH7 and HepG2 cells were routinely grown in complete Dulbecco's Modified Eagle's Medium (Gibco, Thermofisher Scientific) supplemented with 10% fetal bovine serum (Sigma-Aldrich) and 100 U/ml of penicillin and streptomycin (Sigma-Aldrich). […] All cell treatments were carried out for 24 h unless otherwise stated. Cells were transfected with a cocktail consisting of plasmid DNA (1 μg), X-tremeGENE HP (3 μl; Thermofisher Scientific) and opti-MEM (100 μl; Thermofischer Scientific) per 1 ml complete medium containing plated cells. Human PCSK9 was overexpressed using the bicistronic pIRES-EGFP plasmid; calnexin using the mPA-GFP-N1 plasmid. To block the expression of GRP78 and CD36, siGENOME smartpool siRNA was purchased from GE Dharmacon (M-008198-02 and L-010206-00-0005 respectively) and transfected using lipofectamine RNAiMAX as per manufacturer's protocol.
Secreted PCSK9 levels were assessed directly in cell culture medium of cells grown in FBS-free medium for 24 h or in the serum isolated from either mice or human subjects. Mouse PCSK9 was measured using the Quantikinine® ELISA kit (#MCP900, R&D Systems) and human PCSK9 using the PCSK9 Quantikinine® ELISA kit (#DCP900, R&D Systems). Serum ApoB levels were also quantified using ELISAs (#DAPB00, R&D Systems). Serum samples were diluted as per manufacturer's instructions.
as §1

[3] = tested on: GRP78 and SREBP2; assay: Co-immunoprecipitation of GRP78 with SREBP2 in HuH7 cells; type: cell-based, human; conditions: TG 100 nM, CDN 100 μM, CF 200 μM, 24 h
Description: Cells were grown in 10 cm dishes were resuspended in ice cold non-denaturing immunoprecipitation buffer containing 20 mM tris HCL, 137 mM NaCl, 1% NP-40, 2 mM EDTA and protease inhibitor (Roche). Total cell protein was normalized using a protein assay (BioRad) and 1 mg of protein from each sample was incubated with 2 μg of capture antibody targeted against GRP78 (Santa Cruz Biotechnology; SC-1050) and rotated on a platform for 24 h at 4° C. Following incubation, samples were exposed to 100 μl of Protein G magnetic Surebeads® (BioRad) for an additional 2 h on a rotating platform at 4° C. Beads conjugated to the anti-GRP78 antibody were subsequently isolated and the remaining sample was collected and labelled “input” for use as controls. The magnetic beads underwent 4 consecutive washes using the non-denaturing IP buffer and resuspended and boiled in 100 μl of 4× SDS-PAGE sample buffer.
To determine whether increasing ER Ca^2+ levels enhance GRP78 peptide binding capacity, HuH7 cells were treated with either CDN, which increases ER Ca^2+ levels, or TG which causes ER Ca^2+ depletion. Following treatment, the interaction taking place between GRP78 and SREBP2 was examined via immunoprecipitation of the former. By affecting ER Ca^2+ levels however, these agents also directly impact the expression and abundance of GRP78 compared to untreated cells. Therefore, assessment of the relative binding capacity GRP78 for SREBP2 between treatments required normalization of immunoprecipitations to equivalent GRP78 protein levels (FIG. 7 A).

[4] = tested on: PCSK9; assay: PCSK9 expression in hepatocytes (immunoblot, real-time PCR); type: cell-based, human, mouse
Description: as §2
Cells were washed in phosphate-buffered saline (PBS), lysed in 4× SDS-PAGE lysis buffer and separated on 7-10% polyacrylamide gels in denaturing conditions. Gels were transferred to nitrocellulose membranes using the BioRad mini trans-blot system, blocked in 5% skim milk in tris-buffered saline (TBS) for 1 h and incubated in primary antibody overnight for 16 h at 4° C. Membranes were then exposed to horse radish peroxidase conjugated secondary antibodies and visualized using EZ-ECL chemiluminescent reagent (Froggabio). Band intensities were quantified using ImageJ software ([…]) against membranes reprobed for housekeeping proteins.
RNA purification/isolation was performed using RNeasy mini kits (Qiagen) and normalized to 2 μg RNA using a NanoDrop® spectrophotometer. Samples were then reverse transcribed into cDNA using Superscript Vilo cDNA Synthesis kit (Thermofisher Scientific). Real-time PCR was executed with Fast SYBR Green (Thermo Fisher Scientific) using the ΔΔct method on the ViiA7 real-time PCR platform (Thermofisher Scientific).
Cultured immortalized hepatocytes known to express and secrete PCSK9 (Lebeau, P., et al., 2017), including HuH7 and HepG2 cells, as well as primary mouse- and human-hepatocytes (PMH and PHH, respectively), were treated with CF for 24 h and assessed for PCSK9 expression via immunoblots and real-time PCR (FIG. 1 A to D). […] Given that sterol deprivation represents another well-established promoter of SREBP2 activation (Lebeau, P., et al., 2017), cells were also treated with CF in the presence and absence of U18666A (U18) that depletes intracellular sterols. […] Next, HepG2 cells were treated with an increasing dose of CF.

[5] = 18-week-old C57BL/6J mice, CF 30 mg/kg every 24 hours for 14 days

Compound: Cc1ccc2cccc(NC(=O)c3ccc(OC(C)C)cc3)c2n1 [CDN]
- hepatic LDLR expression (CDN) ([1]; mice, 50 mg/kg, IP, 8 h): increased hepatic LDLR expression
- PCSK9 secretion with Ca2+-modulating agents [2]: blocked PCSK9 secretion
- interaction of GRP78 with pre-mature SREBP2 [3]: enhanced the ability of GRP78 to interact with and sequester pre-mature SREBP2
- SREBP2 and PCSK9 mRNA transcript level ([4]; HuH7, ryanodine 10 μM, CDN 100 μM, 2 APB 50 μM, presence or absence of TG, 24 h): blocked SREBP2 and PCSK9 at the mRNA transcript level

Compound: C/C=C(/C)C(=O)O[C@H]1C(C)=C2[C@H]([C@@H]1OC(=O)CCCCCCC)[C@@](C)(OC(C)=O)C[C@H](OC(=O)CCC)[C@@]1(O)[C@H]2OC(=O)[C@@]1(C)O [TG, thapsigargin]
- PCSK9 secretion with Ca2+-modulating agents [2]: blocked PCSK9 secretion
- interaction of GRP78 with pre-mature SREBP2 [3]: lost its intrinsic ability to interact with pre-mature SREBP2
- PCSK9 and SREBP2 expression on ER Ca2+ depletion ([4]; HuH7, TG 100 nM, CPA 10 μM): increased PCSK9 and SREBP2 expression

Compound: Cn1c(=O)c2c(ncn2C)n(C)c1=O [caffeine, 1,3,7-Trimethylxanthine]
- serum Apolipoprotein B (ApoB) [1, 5]: reduction
- serum PCSK9 after daily dosing [1, 5]: reduction
- circulating PCSK9 levels after oral gavage ([1]; mice, CF 20 mg/kg oral gavage, listed as CF): reduced circulating PCSK9 levels; also recorded: reduces plasma PCSK9 levels
- circulating PCSK9 levels ([1]; mice, CF 50 mg/kg IP, 8 h): significant reduction
- circulating triglyceride levels ([1]; mice, CF 50 mg/kg IP, 8 h): significant reduction
- time required to significantly reduce plasma PCSK9 ([1]; mice, time-course): 4 h
- hepatic expression of UPR markers / chaperones ([1]; mouse liver, CF 50 mg/kg, 8 h, listed as CF): reduced the expression of UPR markers; also recorded: reduces chaperone expression
- PCSK9 secretion ([2]; HuH7, HepG2, PMH, PHH, listed as CF): blocked the secretion of PCSK9; also recorded: blocks PCSK9 expression and secretion
- interaction of GRP78 with pre-mature SREBP2 [3]: increases the SREBP2-binding capacity of GRP78
- TG-induced PCSK9 expression ([4]; CF 200 μM with thapsigargin 100 nM, 24 h): attenuated PCSK9 expression
- PCSK9 mRNA and secreted protein in presence of ActD ([4]; HepG2 pre-treated with actinomycin D): failure of CF to block PCSK9 mRNA
- PCSK9 and SREBP2 mRNA and secreted PCSK9 in presence of siGRP78 ([4]; HepG2 transfected with siGRP78): failed to attenuate PCSK9 and SREBP2 mRNA expression or secreted PCSK9 levels
- PCSK9 protein and mRNA transcript levels ([4]; HuH7, HepG2, PMH, PHH, 24 h, listed as CF): reduced protein and mRNA transcript levels of PCSK9; also recorded: blocks PCSK9 expression
- U18-induced PCSK9 expression ([4]; HuH7, CF 200 μM with U18 10 μM, 24 h): attenuated U18-induced PCSK9 expression
